PubChem BioAssay (NCI)
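Step 1: Grow cells in 96-well plates. Step 2: Expose to compound for 48 hours at 5 concentrations. Step 3: Interpolate endpoints linearly; if unreached, use highest concentration. GI50 is the concentration that inhibits growth by half. TGI is the concentration that stops growth completely.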

Key:
Assay in all cases: growth of human tumour cells (NCI), 48 h
[1] = tested on: M14 melanoma
[2] = tested on: SK-MEL-2 melanoma
[3] = tested on: TK-10 renal
[4] = tested on: MOLT-4 leukemia
[5] = tested on: HCC-2998 colon
[6] = tested on: UACC-257 melanoma
[7] = tested on: NCI-H522 lung
[8] = tested on: RXF 393 renal
[9] = tested on: A549 NSCLC
[10] = tested on: 786-0 renal
[11] = tested on: UACC-62 melanoma
[12] = tested on: OVCAR-5 ovarian
[13] = tested on: HCT-116 colon
[14] = tested on: MCF7 breast
[15] = tested on: HOP-62 NSCLC
[16] = tested on: HOP-92 NSCLC
[17] = tested on: SK-OV-3 ovarian
[18] = tested on: NCI-H226 lung
[19] = tested on: NCI-H460 lung
[20] = tested on: OVCAR-8 ovarian
[21] = tested on: MALME-3M melanoma
[22] = tested on: HS 578T breast
[23] = tested on: RPMI-8226 leukemia
[24] = tested on: CAKI-1 renal
[25] = tested on: MDA-MB-435
[26] = tested on: BT-549 breast
[27] = tested on: SF-295 CNS
[28] = tested on: OVCAR-3 ovarian
[29] = tested on: UO-31 renal
[30] = tested on: T-47D breast
[31] = tested on: OVCAR-4 ovarian
[32] = tested on: NCI-H23 lung
[33] = tested on: LOX IMVI melanoma
[34] = tested on: ACHN renal
[35] = tested on: EKVX NSCLC
[36] = tested on: A498 renal
[37] = tested on: K-562 leukemia
[38] = tested on: SF-539 CNS
[39] = tested on: DU-145 prostate
[40] = tested on: SW-620 colon
[41] = tested on: SK-MEL-5 melanoma
[42] = tested on: NCI/ADR-RES ovarian
[43] = tested on: PC-3 prostate
[44] = tested on: CCRF-CEM leukemia
[45] = tested on: HCT-15 colon
[46] = tested on: U251 CNS
[47] = tested on: SK-MEL-28 melanoma
[48] = tested on: SNB-19 CNS
[49] = tested on: HL-60(TB) leukemia
[50] = tested on: IGROV1 ovarian
[51] = tested on: HT29 colon
[52] = tested on: SR leukemia
[53] = tested on: MDA-MB-231 breast
[54] = tested on: SN12C renal
[55] = tested on: KM12 colon

Cc1csc(-c2nnc(Nc3ccc(Oc4ncccc4-c4ccnc(N)n4)cc3)c3ccccc23)c1
GI50 [1]: 1.51 µM | TGI [1]: > 100 µM | GI50 [2]: 2.71 µM | TGI [2]: > 26.9 µM | GI50 [3]: > 100 µM | TGI [3]: > 100 µM | GI50 [4]: 3.34 µM | TGI [4]: > 100 µM | GI50 [5]: 2.54 µM | TGI [5]: > 30.2 µM | TGI [6]: > 100 µM | GI50 [7]: 5.31 µM | TGI [7]: > 69.1 µM | GI50 [8]: 1.51 µM | TGI [8]: > 100 µM | GI50 [9]: 1.95 µM | TGI [9]: > 100 µM | GI50 [10]: > 100 µM | TGI [10]: > 100 µM | GI50 [11]: 0.767 µM | TGI [11]: > 100 µM | GI50 [12]: > 100 µM | TGI [12]: > 100 µM | GI50 [13]: 1.89 µM | TGI [13]: > 100 µM | GI50 [14]: 0.13 µM | TGI [14]: > 100 µM | GI50 [15]: 4.4 µM | TGI [15]: > 100 µM | GI50 [16]: > 100 µM | TGI [16]: > 100 µM | GI50 [17]: > 100 µM | TGI [17]: > 100 µM | GI50 [18]: > 63.8 µM | TGI [18]: > 100 µM | GI50 [19]: 0.0214 µM | TGI [19]: > 100 µM | TGI [20]: > 100 µM | GI50 [21]: 1.9 µM | TGI [21]: > 100 µM | GI50 [22]: > 100 µM | TGI [22]: > 100 µM | GI50 [23]: 3.05 µM | TGI [23]: > 100 µM | TGI [24]: > 100 µM | GI50 [25]: 2.45 µM | TGI [25]: > 100 µM | GI50 [26]: > 100 µM | TGI [26]: > 100 µM | GI50 [27]: 2.98 µM | TGI [27]: > 100 µM | TGI [28]: > 100 µM | TGI [29]: > 100 µM | GI50 [30]: 5 µM | TGI [30]: > 100 µM | GI50 [31]: 6.59 µM | TGI [31]: > 100 µM | GI50 [32]: 2.9 µM | TGI [32]: > 100 µM | GI50 [33]: 0.433 µM | TGI [33]: > 100 µM | GI50 [34]: 2.11 µM | TGI [34]: > 100 µM | GI50 [35]: > 100 µM | TGI [35]: > 100 µM | GI50 [36]: > 100 µM | TGI [36]: > 100 µM | GI50 [37]: 3.15 µM | TGI [37]: > 100 µM | GI50 [38]: > 100 µM | TGI [38]: > 100 µM | GI50 [39]: 4.61 µM | TGI [39]: > 100 µM | GI50 [40]: 0.651 µM | TGI [40]: > 100 µM | GI50 [41]: 71.5 µM | TGI [41]: > 100 µM | GI50 [42]: 0.355 µM | TGI [42]: > 100 µM | GI50 [43]: > 27.1 µM | TGI [43]: > 100 µM | GI50 [44]: 0.234 µM | TGI [44]: > 100 µM | GI50 [45]: 1.78 µM | TGI [45]: > 100 µM | GI50 [46]: > 100 µM | TGI [46]: > 100 µM | GI50 [47]: 2.1 µM | TGI [47]: > 100 µM | GI50 [48]: > 100 µM | TGI [48]: > 100 µM | GI50 [49]: 2.16 µM | TGI [49]: > 100 µM | GI50 [50]: 3.35 µM | TGI [50]: > 100 µM | GI50 [51]: 0.558 µM | TGI [51]: > 100 µM | GI50 [52]: < 0.01 µM | TGI [52]: > 100 µM | GI50 [53]: 4.32 µM | TGI [53]: > 100 µM | GI50 [54]: 2.54 µM | TGI [54]: > 100 µM | GI50 [55]: 2.41 µM | TGI [55]: > 100 µM
